Assay results: patent US10160762B2, “6-alkyl dihydropyrazolopyrimidinone compounds as PDE2 inhibitors” (Merck Sharp & Dohme Corp., priority 2015, dated 2018)
Where two headings read alike, the source gives them in different places.

Target: T1, Rhesus PDE2A3 (Macaca mulatta, UniProt B3VTJ2)
T1 construct: made in house; host or cells: AD293 cells, transient transfection; supernatant of sonicated lysate
T1 sequence (B3VTJ2 1-941): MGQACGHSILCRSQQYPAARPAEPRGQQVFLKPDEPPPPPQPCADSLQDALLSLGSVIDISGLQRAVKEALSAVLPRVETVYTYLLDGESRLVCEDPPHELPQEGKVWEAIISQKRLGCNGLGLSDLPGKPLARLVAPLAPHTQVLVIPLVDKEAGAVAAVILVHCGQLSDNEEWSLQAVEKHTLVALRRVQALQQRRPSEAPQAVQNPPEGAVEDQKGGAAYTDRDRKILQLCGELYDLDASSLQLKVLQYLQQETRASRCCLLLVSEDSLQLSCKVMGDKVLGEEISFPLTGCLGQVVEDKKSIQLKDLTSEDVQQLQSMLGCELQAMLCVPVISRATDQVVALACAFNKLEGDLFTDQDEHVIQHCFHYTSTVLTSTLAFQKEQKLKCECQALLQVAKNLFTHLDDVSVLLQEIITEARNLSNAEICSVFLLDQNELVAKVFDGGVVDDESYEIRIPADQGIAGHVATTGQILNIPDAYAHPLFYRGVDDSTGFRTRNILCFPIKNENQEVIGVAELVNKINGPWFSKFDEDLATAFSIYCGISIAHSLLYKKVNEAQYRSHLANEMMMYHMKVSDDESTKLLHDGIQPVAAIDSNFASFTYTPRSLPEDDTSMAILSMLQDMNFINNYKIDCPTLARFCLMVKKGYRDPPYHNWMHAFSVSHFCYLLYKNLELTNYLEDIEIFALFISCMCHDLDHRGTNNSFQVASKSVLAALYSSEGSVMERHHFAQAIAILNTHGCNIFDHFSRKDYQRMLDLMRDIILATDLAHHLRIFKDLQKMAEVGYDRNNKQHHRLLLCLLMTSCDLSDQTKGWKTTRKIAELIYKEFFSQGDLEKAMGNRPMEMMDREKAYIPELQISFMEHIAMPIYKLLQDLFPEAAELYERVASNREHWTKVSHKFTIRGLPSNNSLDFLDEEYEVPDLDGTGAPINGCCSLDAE
Test: PDE2 fluorescence polarization (IMAP FP) inhibition assay, rhesus PDE2A3
Assay type: biochemical, rhesus macaque
Summary of the method: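 Enzyme source was the lysate supernatant of AD293 cells transiently expressing rhesus PDE2A3, diluted to give 20% conversion of 50 nM FAM-cAMP, with 1 µM cGMP as activator. Buffer was 10 mM Tris pH 7.2, 10 mM MgCl2, 1 mM DTT.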

[1] = Lab A, read-out: Rhesus PDE2 Ki (nM) Lab A
[2] = Lab B, read-out: Rhesus PDE2 Ki (nM) Lab B

Ki [1] [nM]	Ki [2] [nM]	SMILES
41	123	Cc1nc2c(c(CF)nn2C(C)c2ccc(OC(F)(F)F)cc2)c(=O)[nH]1 (single isomer, unassigned) [Example 206, (R)- or (S)-3-(Fluoromethyl)-6-methyl-1-(1-(4-(trifluoro-methoxy-)phenyl)ethyl)-1H-pyrazolo[3,4-d]pyrimidin-4(5H)-one]
0.46	0.84	Cc1nc2c(c(CF)nn2C(C)c2ccc(OC(F)(F)F)cc2)c(=O)[nH]1 (single isomer, unassigned) [Example 207, (S)- or (R)-3-(Fluoromethyl)-6-methyl-1-(1-(4-(trifluoromethoxy)phenyl)ethyl)-1H-pyrazolo[3,4-d]pyrimidin-4(5H)-one]
	1	Cc1nc2c(c(CF)nn2C(c2ccc(C(F)(F)F)cc2)C2(C)CC2)c(=O)[nH]1 (single isomer, unassigned) [Example 209]
	0.49	Cc1nc2c(c(CF)nn2C(C)c2ccc(CC(F)(F)F)cc2)c(=O)[nH]1 (single isomer, unassigned) [Example 211, (S)- or (R)-3-(Fluoromethyl)-6-methyl-1-(1-(4-(2,2,2-trifluoroethyl)phenyl)ethyl)-1H-pyrazolo[3,4-d]pyrimidin-4(5H)-one]
	54	Cc1nc2c(c(CF)nn2C(c2ccc(C(F)(F)F)cc2)C(C)C)c(=O)[nH]1 (single isomer, unassigned) [Example 212, (R)- or (S)-3-(Fluoromethyl)-6-methyl-1-(2-methyl-1-(4-(trifluoromethyl)phenyl)propyl)-1H-pyrazolo[3,4-d]pyrimidin-4(5H)-one]
	0.15	Cc1nc2c(c(CF)nn2C(c2ccc(C(F)(F)F)cc2)C(C)C)c(=O)[nH]1 (single isomer, unassigned) [Example 213, (S)- or (R)-3-(Fluoromethyl)-6-methyl-1-(2-methyl-1-(4-(trifluoromethyl)phenyl)propyl)-1H-pyrazolo[3,4-d]pyrimidin-4(5H)-one]
179	318	Cc1nc2c(c(CF)nn2C(C)c2ccc(C(C)(C)C)cc2)c(=O)[nH]1 (single isomer, unassigned) [Example 214, (R)- or (S)-1-(1-(4-tert-Butylphenyl)ethyl)-3-(fluoromethyl)-6-methyl-1H-pyrazolo[3,4-d]pyrimidin-4(5H)-one]
0.24	0.63	Cc1nc2c(c(CF)nn2C(C)c2ccc(C(C)(C)C)cc2)c(=O)[nH]1 (single isomer, unassigned) [Example 215, (S)- or (R)-1-(1-(4-tert-Butylphenyl)ethyl)-3-(fluoromethyl)-6-methyl-1H-pyrazolo[3,4-d]pyrimidin-4(5H)-one]
19	41	Cc1nc2c(c(CF)nn2C(C)c2ccc(OC(F)(F)F)c(F)c2)c(=O)[nH]1 (single isomer, unassigned) [Example 216, (R)- or (S)-1-(1-(3-Fluoro-4-(trifluoromethoxy)phenyl)ethyl)-3-(fluoromethyl)-6-methyl-1H-pyrazolo[3,4-d]pyrimidin-4(5H)-one]
0.39	0.53	Cc1nc2c(c(CF)nn2C(C)c2ccc(OC(F)(F)F)c(F)c2)c(=O)[nH]1 (single isomer, unassigned) [Example 217, (S)- or (R)-1-(1-(3-Fluoro-4-(trifluoromethoxy)phenyl)ethyl)-3-(fluoromethyl)-6-methyl-1H-pyrazolo[3,4-d]pyrimidin-4(5H)-one]
0.17	~0.28	COc1ccc(Cc2nc3c(c(CF)nn3C(C)c3ccc(C(F)(F)F)cc3)c(=O)[nH]2)cc1OC (single isomer, unassigned) [Example 222, (R)- or (S)-6-(3,4-Dimethoxybenzyl)-3-(fluoromethyl)-1-(1-(4-(trifluoromethyl)phenyl)ethyl)-1,5-dihydro-4H-pyrazolo[3,4-d]pyrimidin-4-one]
26		COc1ccc(Cc2nc3c(c(CF)nn3C(C)c3ccc(C(F)(F)F)cc3)c(=O)[nH]2)cc1OC (single isomer, unassigned) [Example 223, (S)- or (R)-6-(3,4-Dimethoxybenzyl)-3-(fluoromethyl)-1-(1-(4-(trifluoromethyl)phenyl)ethyl)-1,5-dihydro-4H-pyrazolo[3,4-d]pyrimidin-4-one]
4.1	7.2	Cc1nc2c(c(CO)nn2C(C)c2ccc(C(F)(F)F)c(F)c2)c(=O)[nH]1 (centres unmarked) [Example 1, 1-(1-(3-Fluoro-4-(trifluoromethyl)phenyl)ethyl)-3-(hydroxymethyl)-6-methyl-1H-pyrazolo[3,4-d]pyrimidin-4(5H)-one]
26	30	Cc1ccc(C(C)n2nc(CO)c3c(=O)[nH]c(C)nc32)cc1 (centres unmarked) [Example 2, 3-(Hydroxymethyl)-6-methyl-1-(1-p-tolylethyl)-1H-pyrazolo[3,4-d]pyrimidin-4(5H)-one]
1.8	5.6	Cc1nc2c(c(CO)nn2C(C)c2ccc(C3CC3)cc2)c(=O)[nH]1 (centres unmarked) [Example 3, 1-(1-(4-Cyclopropylphenl)ethyl)-3-(hydroxymethyl)-6-methyl-1H-pyrazolo[3,4-d]pyrimidin-4(5H)-one]
3.8	7.1	Cc1nc2c(c(CO)nn2C(C)c2ccc(OC(F)(F)F)cc2)c(=O)[nH]1 (centres unmarked) [Example 4]
0.62	1	Cc1nc2c(c(CO)nn2C(c2ccc(C(F)(F)F)cc2)C(C)C)c(=O)[nH]1 (centres unmarked) [Example 5, 3-(Hydroxymethyl)-6-methyl-1-(2-methyl-1-(4-(trifluoromethyl)phenyl)propyl)-1H-pyrazolo[3,4-d]pyrimidin-4(5H)-one]
1.6	3.5	Cc1nc2c(c(CO)nn2C(c2ccc(C(F)(F)F)cc2)C(F)(F)F)c(=O)[nH]1 (centres unmarked) [Example 6, 3-(Hydroxymethyl)-6-methyl-1-(2,2,2-trifluoro-1-(4-(trifluoromethyl)phenyl)ethyl)-1H-pyrazolo[3,4-d]pyrimidin-4(5H)-one]
19		Cc1nc2c(c(CO)nn2C(C)c2ccc(C(F)(F)F)cc2)c(=O)[nH]1 (centres unmarked) [Example 7, 3-(Hydroxymethyl)-6-methyl-1-(1-(4-(trifluoromethyl)phenyl)ethyl)-1H-pyrazolo[3,4-d]pyrimidin-4(5H)-one]
192		Cc1nc2c(c(CO)nn2Cc2ccc(C(F)(F)F)cc2)c(=O)[nH]1 [Example 8, 3-(Hydroxymethyl)-6-methyl-1-[4-(trifluoromethyl)benzyl]-1,5-dihydro-4H-pyrazolo[3,4-d]pyrimidin-4-one]
54	56	Cc1nc2c(c(CO)nn2C(C)(C)c2ccc(C(F)(F)F)cc2)c(=O)[nH]1 [Example 9, 3-(Hydroxymethyl)-6-methyl-1-{1-methyl-1-[4-(trifluoromethyl)phenyl]ethyl}-1,5-dihydro-4H-pyrazolo[3,4-d]pyrimidin-4-one]
0.75	2.2	Cc1nc2c(c(CO)nn2C(c2ccc(C(F)(F)F)cc2)C2CC2)c(=O)[nH]1 (centres unmarked) [Example 28, 1-(Cyclopropyl(4-(trifluoromethyl)phenyl)methyl)-3-(hydroxymethyl)-6-methyl-1H-pyrazolo[3,4-d]pyrimidin-4(5H)-one]
6.6	11	Cc1nn(C(C)c2ccc(C(F)(F)F)cc2)c2nc(Cc3cccc(O)c3)[nH]c(=O)c12 (centres unmarked) [Example 30, 6-(3-Hydroxybenzyl)-3-methyl-1-(1-(4-(trifluoromethyl)phenyl)ethyl)-1H-pyrazolo[3,4-d]pyrimidin-4(5H)-one]
65	128	Cc1nn(C(C)c2ccc(C(F)(F)F)cc2)c2nc(Cc3ccccc3O)[nH]c(=O)c12 (centres unmarked) [Example 31, 6-(2-Hydroxybenzyl)-3-methyl-1-(1-(4-(trifluoromethyl)phenyl)ethyl)-1H-pyrazolo[3,4-d]pyrimidin-4(5H)-one]
164		CCOCCc1nc2c(c(C)nn2C(C)c2ccc(C(F)(F)F)cc2)c(=O)[nH]1 (centres unmarked) [Example 35, 6-(2-Ethoxyethyl)-3-methyl-1-(1-(4-(trifluoromethyl)phenyl)ethyl)-1H-pyrazolo[3,4-d]pyrimidin-4(5H)-one]
58		CCc1nc2c(c(C)nn2C(C)c2ccc(C(F)(F)F)cc2)c(=O)[nH]1 (centres unmarked) [Example 38, 6-Ethyl-3-methyl-1-{1-[4-(trifluoromethyl)phenyl]ethyl}-1,5-dihydro-4H-pyrazolo[3,4-d]pyrimidin-4-one]
147		Cc1nn(C(C)c2ccc(C(F)(F)F)cc2)c2nc(C3CCC3)[nH]c(=O)c12 (centres unmarked) [Example 39, 6-Cyclobutyl-3-methyl-1-{1-[4-(trifluoromethyl)phenyl]ethyl}-1,5-dihydro-4H-pyrazolo[3,4-d]pyrimidin-4-one]
